Results published in PubChem BioAssay AID2060902 (Molecular Pharmacology Branch, DTP, NCI, 2025).

Test system: 485368-065-R3-J5-PDC spheroids with HUVEC/MSC, viability
Assay: Anticancer human tumor 485368-065-R3-J5-PDC patient-derived pancreatic carcinoma cell line growth inhibition [RAS]
Settings: for IC50: curve of first compound; for viability, T/C: stronger effect = lower value
How it was run: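 Tumour cells grown as complex spheroids with HUVEC endothelial cells and mesenchymal stem cells, treated with RAS pathway inhibitor combinations. Each agent spans half-log steps from near clinical Cmax, or 10 microM where Cmax is unknown.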

[1] = second compound 0.000949 µM, first compound 0.0316 µM
[2] = second compound 0.000949 µM, first compound 0.1 µM
[3] = second compound 0.000949 µM, first compound 0.316 µM
[4] = second compound 0.000949 µM, first compound 1 µM
[5] = second compound 0.000949 µM, first compound 3.16 µM
[6] = second compound 0.000949 µM, first compound 10 µM
[7] = second compound 0.003 µM, first compound 0.0316 µM
[8] = second compound 0.003 µM, first compound 0.1 µM
[9] = second compound 0.003 µM, first compound 0.316 µM
[10] = second compound 0.003 µM, first compound 1 µM
[11] = second compound 0.003 µM, first compound 3.16 µM
[12] = second compound 0.003 µM, first compound 10 µM
[13] = second compound 0.00949 µM, first compound 0.0316 µM
[14] = second compound 0.00949 µM, first compound 0.1 µM
[15] = second compound 0.00949 µM, first compound 0.316 µM
[16] = second compound 0.00949 µM, first compound 1 µM
[17] = second compound 0.00949 µM, first compound 3.16 µM
[18] = second compound 0.00949 µM, first compound 10 µM
[19] = second compound 0.03 µM, first compound 0.0316 µM
[20] = second compound 0.03 µM, first compound 0.1 µM
[21] = second compound 0.03 µM, first compound 0.316 µM
[22] = second compound 0.03 µM, first compound 1 µM
[23] = second compound 0.03 µM, first compound 3.16 µM
[24] = second compound 0.03 µM, first compound 10 µM
[25] = second compound 0.0949 µM, first compound 0.0316 µM
[26] = second compound 0.0949 µM, first compound 0.1 µM
[27] = second compound 0.0949 µM, first compound 0.316 µM
[28] = second compound 0.0949 µM, first compound 1 µM
[29] = second compound 0.0949 µM, first compound 3.16 µM
[30] = second compound 0.0949 µM, first compound 10 µM
[31] = second compound 0.3 µM, first compound 0.0316 µM
[32] = second compound 0.3 µM, first compound 0.1 µM
[33] = second compound 0.3 µM, first compound 0.316 µM
[34] = second compound 0.3 µM, first compound 1 µM
[35] = second compound 0.3 µM, first compound 3.16 µM
[36] = second compound 0.3 µM, first compound 10 µM
[37] = second compound 0.000949 µM, first compound 0.00316 µM
[38] = second compound 0.000949 µM, first compound 0.01 µM
[39] = second compound 0.003 µM, first compound 0.00316 µM
[40] = second compound 0.003 µM, first compound 0.01 µM
[41] = second compound 0.00949 µM, first compound 0.00316 µM
[42] = second compound 0.00949 µM, first compound 0.01 µM
[43] = second compound 0.03 µM, first compound 0.00316 µM
[44] = second compound 0.03 µM, first compound 0.01 µM
[45] = second compound 0.0949 µM, first compound 0.00316 µM
[46] = second compound 0.0949 µM, first compound 0.01 µM
[47] = second compound 0.3 µM, first compound 0.00316 µM
[48] = second compound 0.3 µM, first compound 0.01 µM
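Note: spheroids exposed to agents for seven days before readout.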

CC(C)NCC(C(=O)N1CCN(c2ncnc3c2C(C)CC3O)CC1)c1ccc(Cl)cc1 (stereo not drawn) + CCn1c(-c2cccnc2C(C)OC)c2c3cc(ccc31)N1CCOC(CC(NC(=O)C(C(C)C)N(C)C(=O)C3(F)CCN(C(=O)C#CC(C)(C)N(C)C)CC3)C(=O)N3CCCC(N3)C(=O)OCC(C)(C)C2)C1
IC50 (second compound 0.000949 µM): > 10000 nM | IC50 (second compound 0.003 µM): > 10000 nM | IC50 (second compound 0.00949 µM): > 10000 nM | IC50 (second compound 0.03 µM): > 10000 nM | IC50 (second compound 0.0949 µM): > 10000 nM | IC50 (second compound 0.3 µM): > 10000 nM | viability, T/C [1]: 102% | viability, T/C [2]: 99.4% | viability, T/C [3]: 95.9% | viability, T/C [4]: 79.9% | viability, T/C [5]: 74.6% | viability, T/C [6]: 55.8% | viability, T/C [7]: 88.7% | viability, T/C [8]: 94% | viability, T/C [9]: 93.8% | viability, T/C [10]: 81.7% | viability, T/C [11]: 81.4% | viability, T/C [12]: 62.2% | viability, T/C [13]: 95.7% | viability, T/C [14]: 103% | viability, T/C [15]: 97% | viability, T/C [16]: 87.6% | viability, T/C [17]: 76.8% | viability, T/C [18]: 66.1% | viability, T/C [19]: 89.1% | viability, T/C [20]: 104% | viability, T/C [21]: 88.4% | viability, T/C [22]: 84.7% | viability, T/C [23]: 70.2% | viability, T/C [24]: 58.6% | viability, T/C [25]: 99.9% | viability, T/C [26]: 104% | viability, T/C [27]: 89.5% | viability, T/C [28]: 80.7% | viability, T/C [29]: 69.8% | viability, T/C [30]: 56.2% | viability, T/C [31]: 98.7% | viability, T/C [32]: 101% | viability, T/C [33]: 90.7% | viability, T/C [34]: 78.8% | viability, T/C [35]: 70.3% | viability, T/C [36]: 49.7%

CC(C)n1nc(-c2ccc3oc(N)nc3c2)c2c(N)ncnc21 + CCn1c(-c2cccnc2C(C)OC)c2c3cc(ccc31)N1CCOC(CC(NC(=O)C(C(C)C)N(C)C(=O)C3(F)CCN(C(=O)C#CC(C)(C)N(C)C)CC3)C(=O)N3CCCC(N3)C(=O)OCC(C)(C)C2)C1
IC50 (second compound 0.000949 µM): 21.7 nM | IC50 (second compound 0.003 µM): 19.1 nM | IC50 (second compound 0.00949 µM): 19.9 nM | IC50 (second compound 0.03 µM): 21.7 nM | IC50 (second compound 0.0949 µM): 21.2 nM | IC50 (second compound 0.3 µM): 25.6 nM | viability, T/C (second compound 0.000949 µM, first compound 0.000316 µM): 93.8% | viability, T/C (second compound 0.000949 µM, first compound 0.001 µM): 107% | viability, T/C [37]: 84.2% | viability, T/C [38]: 73.4% | viability, T/C [1]: 38.8% | viability, T/C [2]: 21.2% | viability, T/C (second compound 0.003 µM, first compound 0.000316 µM): 97.6% | viability, T/C (second compound 0.003 µM, first compound 0.001 µM): 97.3% | viability, T/C [39]: 85.6% | viability, T/C [40]: 66.8% | viability, T/C [7]: 37.2% | viability, T/C [8]: 19.4% | viability, T/C (second compound 0.00949 µM, first compound 0.000316 µM): 88.2% | viability, T/C (second compound 0.00949 µM, first compound 0.001 µM): 115% | viability, T/C [41]: 85.9% | viability, T/C [42]: 66.6% | viability, T/C [13]: 40.2% | viability, T/C [14]: 19.4% | viability, T/C (second compound 0.03 µM, first compound 0.000316 µM): 92% | viability, T/C (second compound 0.03 µM, first compound 0.001 µM): 96.3% | viability, T/C [43]: 96.2% | viability, T/C [44]: 78.1% | viability, T/C [19]: 36.4% | viability, T/C [20]: 22.1% | viability, T/C (second compound 0.0949 µM, first compound 0.000316 µM): 89.3% | viability, T/C (second compound 0.0949 µM, first compound 0.001 µM): 98.2% | viability, T/C [45]: 96.6% | viability, T/C [46]: 69.1% | viability, T/C [25]: 40.3% | viability, T/C [26]: 19.5% | viability, T/C (second compound 0.3 µM, first compound 0.000316 µM): 97.3% | viability, T/C (second compound 0.3 µM, first compound 0.001 µM): 99.4% | viability, T/C [47]: 86.9% | viability, T/C [48]: 75% | viability, T/C [31]: 43.9% | viability, T/C [32]: 22.4%

CC(Nc1ccc2c(c1)OCCn1cc(N3C(=O)OCC3C(F)F)nc1-2)C(N)=O (stereo not drawn) + CCn1c(-c2cccnc2C(C)OC)c2c3cc(ccc31)N1CCOC(CC(NC(=O)C(C(C)C)N(C)C(=O)C3(F)CCN(C(=O)C#CC(C)(C)N(C)C)CC3)C(=O)N3CCCC(N3)C(=O)OCC(C)(C)C2)C1
IC50 (second compound 0.000949 µM): > 10000 nM | IC50 (second compound 0.003 µM): > 10000 nM | IC50 (second compound 0.00949 µM): > 10000 nM | IC50 (second compound 0.03 µM): > 10000 nM | IC50 (second compound 0.0949 µM): > 10000 nM | IC50 (second compound 0.3 µM): > 10000 nM | viability, T/C [1]: 106% | viability, T/C [2]: 93.9% | viability, T/C [3]: 94.2% | viability, T/C [4]: 72.2% | viability, T/C [5]: 70.4% | viability, T/C [6]: 65.8% | viability, T/C [7]: 90.8% | viability, T/C [8]: 93% | viability, T/C [9]: 93.7% | viability, T/C [10]: 86.2% | viability, T/C [11]: 98.9% | viability, T/C [12]: 56.8% | viability, T/C [13]: 94.4% | viability, T/C [14]: 101% | viability, T/C [15]: 84.9% | viability, T/C [16]: 96% | viability, T/C [17]: 85.9% | viability, T/C [18]: 55.7% | viability, T/C [19]: 96.6% | viability, T/C [20]: 91% | viability, T/C [21]: 99% | viability, T/C [22]: 82.5% | viability, T/C [23]: 95.5% | viability, T/C [24]: 65% | viability, T/C [25]: 103% | viability, T/C [26]: 94.1% | viability, T/C [27]: 78.6% | viability, T/C [28]: 93.7% | viability, T/C [29]: 77.9% | viability, T/C [30]: 62.1% | viability, T/C [31]: 100% | viability, T/C [32]: 101% | viability, T/C [33]: 86.6% | viability, T/C [34]: 83.7% | viability, T/C [35]: 84% | viability, T/C [36]: 71.8%

O=C(c1ccc(F)c(F)c1Nc1ccc(I)cc1F)N1CC(O)([C@@H]2CCCCN2)C1 + CCn1c(-c2cccnc2C(C)OC)c2c3cc(ccc31)N1CCOC(CC(NC(=O)C(C(C)C)N(C)C(=O)C3(F)CCN(C(=O)C#CC(C)(C)N(C)C)CC3)C(=O)N3CCCC(N3)C(=O)OCC(C)(C)C2)C1
IC50 (second compound 0.000949 µM): 58.6 nM | IC50 (second compound 0.003 µM): 66.5 nM | IC50 (second compound 0.00949 µM): 59.5 nM | IC50 (second compound 0.03 µM): 54.5 nM | IC50 (second compound 0.0949 µM): 65.5 nM | IC50 (second compound 0.3 µM): 40.4 nM | viability, T/C [37]: 101% | viability, T/C [38]: 78.4% | viability, T/C [1]: 64.1% | viability, T/C [2]: 37.7% | viability, T/C [3]: 26.4% | viability, T/C [4]: 11.7% | viability, T/C [39]: 97.3% | viability, T/C [40]: 88.4% | viability, T/C [7]: 60.1% | viability, T/C [8]: 40.7% | viability, T/C [9]: 31.5% | viability, T/C [10]: 13.9% | viability, T/C [41]: 87% | viability, T/C [42]: 73.6% | viability, T/C [13]: 60.9% | viability, T/C [14]: 39.4% | viability, T/C [15]: 30.1% | viability, T/C [16]: 14% | viability, T/C [43]: 89.6% | viability, T/C [44]: 76.8% | viability, T/C [19]: 62.5% | viability, T/C [20]: 36.8% | viability, T/C [21]: 24% | viability, T/C [22]: 15% | viability, T/C [45]: 88.3% | viability, T/C [46]: 75.3% | viability, T/C [25]: 64% | viability, T/C [26]: 39.8% | viability, T/C [27]: 28.5% | viability, T/C [28]: 10% | viability, T/C [47]: 91.4% | viability, T/C [48]: 74.7% | viability, T/C [31]: 51.1% | viability, T/C [32]: 36.3% | viability, T/C [33]: 23.5% | viability, T/C [34]: 8.18%
